# Read-outs that look alike come from different tables or passages of the source. Where a SMILES comes first, the peptide text is derived from it. Bridges are numbered along the chain shown (N, C = ends). [ ]: non-standard residue; d: D form. The star is where a group is joined. d(aIle) = CC[C@H](C)[C@@H](N)C(=O)O; d(aThr) = C[C@@H](O)[C@@H](N)C(=O)O; Hexanoyl(5-Me) = CC(C)CCCC(=O)*; Orn = NCCC[C@H](N)C(=O)O; Dhb = C/C=C(\N)C(=O)O
# Columns and labels:
# Format in all cases: cell-based, human
# LoVo-Dox = experiment: SRB colorimetric assay of cell growth and viability, LoVo-Dox; details: 48 hours exposure; for CC50: read-out: LC50 LOVO-DOX
# Procedure, shortened: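 Tumor cells are continuously exposed to sample for 48 hours, with vehicle DMSO:EtOH:PBS (0.5:0.5:99), after an 18-hour drug-free attachment period. Bound SRB, measured at 490 nm, reflects cell mass; GI, TGI and LC are derived from triplicate means.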
# IGROV-ET = experiment: SRB colorimetric assay of cell growth and viability, IGROV-ET; details: 48 hours exposure; for CC50: read-out: LC50 IGROV-ET
# IGROV-1 = experiment: SRB colorimetric assay of cell growth and viability, IGROV-1; details: 48 hours exposure
# SK-BR-3 = experiment: SRB colorimetric assay of cell growth and viability, SK-BR-3; details: 48 hours exposure
# DU-145 = experiment: SRB colorimetric assay of cell growth and viability, DU-145; details: 48 hours exposure
# HeLa = experiment: SRB colorimetric assay of cell growth and viability, HeLa; details: 48 hours exposure
# PANC-1 = experiment: SRB colorimetric assay of cell growth and viability, PANC-1; details: 48 hours exposure; for CC50: read-out: LC50 PANC-1
# HeLa-APL = experiment: SRB colorimetric assay of cell growth and viability, HeLa-APL; details: 48 hours exposure; for CC50: read-out: LC50 HELA-APL
# A-549 = experiment: SRB colorimetric assay of cell growth and viability, A-549; details: 48 hours exposure; for GI50: read-out: GI50 A-549; for CC50: read-out: LC50 A-549
# SK-MEL-28 = experiment: SRB colorimetric assay of cell growth and viability, SK-MEL-28; details: 48 hours exposure; for CC50: read-out: LC50 MEL-28
# HT-29 = experiment: SRB colorimetric assay of cell growth and viability, HT-29; details: 48 hours exposure; for GI50: read-out: GI50 HT-29; for CC50: read-out: LC50 HT-29
# LoVo = experiment: SRB colorimetric assay of cell growth and viability, LoVo; details: 48 hours exposure, SRB
# LNCaP = experiment: SRB colorimetric assay of cell growth and viability, LNCaP; details: 48 hours exposure; for CC50: read-out: LC50 LN-caP
# K-562 = experiment: SRB colorimetric assay of cell growth and viability, K-562; details: K-562, 48 hours exposure
compound,measurement,setting,value
"C/C=C1\NC(=O)[C@H](Cc2ccc(F)cc2)NC(=O)[C@@H](C(C)C)NC(=O)[C@@H]([C@@H](C)CC)NC(=O)[C@H](NC(=O)[C@H](NC(=O)[C@H](CCCN)NC(=O)[C@H]2CCCN2C(=O)[C@H](NC(=O)[C@@H](NC(=O)[C@@H](NC(=O)[C@H](NC(=O)CC[C@@H](C)CC)C(C)C)[C@@H](C)O)C(C)C)C(C)C)[C@@H](C)CC)[C@@H](C)OC(=O)[C@H](C(C)C)NC1=O [Compound 74, [Phe(4-F)^3, (4S)-MeHex^14]-KF]",GI50,LoVo-Dox; SRB,0.153 µM
same,TGI LOVO-DOX,LoVo-Dox; SRB,3.09E−07 Molar
same,CC50,LoVo-Dox; SRB,0.624 µM
same,GI50,IGROV-ET; SRB,0.212 µM
same,TGI IGROV-ET,IGROV-ET; SRB,3.18E−07 Molar
same,CC50,IGROV-ET; SRB,0.477 µM
same,GI50,IGROV-1; SRB,0.206 µM
same,LC50 (concentration causing 50% net cell killing),IGROV-1; SRB,0.943 µM
same,TGI IGROV,IGROV-1; SRB,3.88E−07 Molar
same,GI50,SK-BR-3; SRB,0.213 µM
same,LC50,SK-BR-3; SRB,0.495 µM
same,TGI SK-BR-3,SK-BR-3; SRB,3.24E−07 Molar
same,GI50,DU-145; SRB,0.796 µM
same,LC50 (concentration causing 50% net cell kill),DU-145; SRB,3.25 µM
same,TGI DU-145,DU-145; SRB,1.61E−06 Molar
same,GI50,HeLa; SRB,0.214 µM
same,TGI HELA,HeLa; SRB,3.78E−07 Molar
same,GI50,PANC-1; SRB,1.08 µM
same,TGI PANC-1,PANC-1; SRB,1.98E−06 Molar
same,CC50,PANC-1; SRB,3.6 µM
same,GI50,HeLa-APL; SRB,0.675 µM
same,TGI HELA-APL,HeLa-APL; SRB,1.46E−06 Molar
same,CC50,HeLa-APL; SRB,3.15 µM
same,TGI A-549,A-549; SRB,1.76E−06 Molar
same,GI50,A-549; SRB,0.956 µM
same,CC50,A-549; SRB,3.23 µM
same,GI50,SK-MEL-28; SRB,0.829 µM
same,TGI MEL-28,SK-MEL-28; SRB,1.64E−06 Molar
same,CC50,SK-MEL-28; SRB,3.23 µM
same,TGI HT-29,HT-29; SRB,2.61E−07 Molar
same,GI50,HT-29; SRB,0.137 µM
same,CC50,HT-29; SRB,0.499 µM
same,GI50,LoVo,0.139 µM
same,TGI LOVO,LoVo,2.35E−07 Molar
same,CC50,LoVo; read-out: LC50 LOVO,0.395 µM
same,TGI LN-caP,LNCaP; SRB,1.02E−06 Molar
same,GI50,"LNCaP; SRB, read-out: GI50 LN-caP",0.402 µM
same,CC50,LNCaP; SRB,2.59 µM
"C/C=C1\NC(=O)[C@H](Cc2ccccc2)NC(=O)[C@@H](C(C)C)NC(=O)[C@@H]([C@@H](C)CC)NC(=O)[C@H](NC(=O)[C@H](NC(=O)[C@H](CCCN)NC(=O)[C@H]2CCCN2C(=O)[C@H](NC(=O)[C@@H](NC(=O)[C@H](C)NC(=O)[C@H](NC(=O)CCCC(C)C)C(C)C)C(C)C)C(C)C)[C@@H](C)CC)[C@@H](C)OC(=O)[C@H](C(C)C)NC1=O [Compound 112, [Ala^12]-KF] ({Hexanoyl(5-Me)}-[dV]AV[dV][dP][Orn][d(aIle)][d(aThr)][d(aIle)][dV]F[Dhb]V; ester 8-C)",GI50,LoVo-Dox; LOVO-DOX,1.11 µM
same,TGI LOVO-DOX,LoVo-Dox; LOVO-DOX,2.76E−06 Molar
same,CC50,LoVo-Dox; LOVO-DOX,6.85 µM
same,GI50,IGROV-ET; IGROV-ET,1.51 µM
same,TGI IGROV-ET,IGROV-ET; IGROV-ET,3.44E−06 Molar
same,CC50,IGROV-ET; IGROV-ET,6.91 µM
same,GI50,K-562,2.79 µM
same,TGI K-562,K-562,5.62E−06 Molar
same,CC50,K-562; read-out: LC50 K-562,6.91 µM
same,GI50,IGROV-1; IGROV,1.31 µM
same,LC50 (concentration causing 50% net cell killing),IGROV-1; IGROV,6.91 µM
same,TGI IGROV,IGROV-1; IGROV,3.09E−06 Molar
same,GI50,SK-BR-3; SK-BR-3,3.97 µM
same,LC50,SK-BR-3; SK-BR-3,6.91 µM
same,TGI SK-BR-3,SK-BR-3; SK-BR-3,5.84E−06 Molar
same,GI50,DU-145; DU-145,1.34 µM
same,LC50 (concentration causing 50% net cell kill),DU-145; DU-145,5.91 µM
same,TGI DU-145,DU-145; DU-145,2.82E−06 Molar
same,GI50,HeLa; HELA,0.739 µM
same,TGI HELA,HeLa; HELA,2.41E−06 Molar
same,CC50,"HeLa; HELA, read-out: LC50 HELA",6.91 µM
same,GI50,PANC-1; PANC-1,1.91 µM
same,TGI PANC-1,PANC-1; PANC-1,5.43E−06 Molar
same,CC50,PANC-1; PANC-1,6.91 µM
same,GI50,HeLa-APL; HELA-APL,1.42 µM
same,TGI HELA-APL,HeLa-APL; HELA-APL,2.85E−06 Molar
same,CC50,HeLa-APL; HELA-APL,5.75 µM
same,TGI A-549,A-549; A-549,2.87E−06 Molar
same,GI50,A-549; A-549,1.45 µM
same,CC50,A-549; A-549,5.64 µM
same,GI50,SK-MEL-28; MEL-28,1.39 µM
same,TGI MEL-28,SK-MEL-28; MEL-28,2.74E−06 Molar
same,CC50,SK-MEL-28; MEL-28,5.43 µM
same,TGI HT-29,HT-29; HT-29,2.26E−06 Molar
same,GI50,HT-29; HT-29,1.15 µM
same,CC50,HT-29; HT-29,4.45 µM
same,GI50,LNCaP; LN-caP,1.19 µM
same,TGI LN-caP,LNCaP; LN-caP,2.64E−06 Molar
same,CC50,LNCaP; LN-caP,5.85 µM
